Counter-ions that a name gives are not always drawn. Like-named read-outs stand apart in the source and are kept apart here.
What was measured:
Type in all cases: biochemical
cathepsin B = target: T1, cathepsin B (Bos taurus, UniProt P07688); assay: Thiol protease inhibitory activity against cathepsin B (C-6286, Sigma); settings: Table 3; read-out: IC50 (μM) cathepsin B
T1 construct: purchased Sigma C-6286
Method: (§1) Inhibitory activity against papain (P-3125, Sigma) and cathepsin B (C-6286, Sigma) was assayed according to the method described in a literature [Biochemical Journal, 201, 189 (1982)]. Capthesin L was purified from rat kidney according to the method in a literature [Journal of Biochemistry, 100, 35 (1986)], and the inhibitory activity against it was assayed in the same manner as described in the above literature for cathepsin B. Further, m-calpain was purified from rat brain according to a known method [Journal of Biological Chemistry, 254, p.3210 (1984)] and the inhibitory activity against it was assayed by a method described in a literature [Journal of Biological Chemistry, 259, 12489 (1984)]. The results are showing in Tables 3 and 4. It is evident from Tables 3 and 4 that the compounds in the present invention have a potent inhibitory activity against thiol proteases such as papain, cathepsin B, cathepsin L, m-calpain or the like.

papain = target: T2, papain (Carica papaya, UniProt P00784); assay: Thiol protease inhibitory activity against papain (P-3125, Sigma); settings: Table 3; read-out: IC50 (μM) papain
T2 sequence (P00784 134-345): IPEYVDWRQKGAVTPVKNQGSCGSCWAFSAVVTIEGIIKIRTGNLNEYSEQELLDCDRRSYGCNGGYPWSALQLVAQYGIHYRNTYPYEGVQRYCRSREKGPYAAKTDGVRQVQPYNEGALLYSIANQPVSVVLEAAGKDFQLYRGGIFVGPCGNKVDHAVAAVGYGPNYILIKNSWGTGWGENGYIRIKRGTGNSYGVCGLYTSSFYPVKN
Method: as §1

m-calpain = target: T3, m-calpain (Rattus norvegicus, UniProt Q07009); assay: Thiol protease inhibitory activity against m-calpain purified from rat brain; settings: rat brain enzyme
T3 construct: m-calpain was purified from rat brain; from tissue; host or cells: rat brain
T3 sequence (Q07009 20-700 limits assumed): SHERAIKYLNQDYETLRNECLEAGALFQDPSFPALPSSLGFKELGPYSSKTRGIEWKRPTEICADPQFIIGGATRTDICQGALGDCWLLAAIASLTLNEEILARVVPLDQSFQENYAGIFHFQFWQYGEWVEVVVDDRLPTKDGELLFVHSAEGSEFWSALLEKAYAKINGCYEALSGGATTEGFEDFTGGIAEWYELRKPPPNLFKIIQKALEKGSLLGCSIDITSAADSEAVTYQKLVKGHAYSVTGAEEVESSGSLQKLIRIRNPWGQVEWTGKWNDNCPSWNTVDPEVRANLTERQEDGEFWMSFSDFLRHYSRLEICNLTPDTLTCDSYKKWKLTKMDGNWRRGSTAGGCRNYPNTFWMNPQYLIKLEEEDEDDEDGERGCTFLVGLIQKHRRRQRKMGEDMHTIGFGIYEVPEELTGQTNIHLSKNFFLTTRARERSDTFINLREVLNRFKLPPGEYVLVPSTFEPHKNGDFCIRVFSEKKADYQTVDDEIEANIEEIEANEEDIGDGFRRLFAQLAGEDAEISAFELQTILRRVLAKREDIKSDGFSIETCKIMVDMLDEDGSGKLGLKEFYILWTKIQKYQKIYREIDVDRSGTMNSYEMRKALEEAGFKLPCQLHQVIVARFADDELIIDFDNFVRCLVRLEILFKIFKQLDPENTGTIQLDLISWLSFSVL
T3 sequence (Q64537 1-270 partner): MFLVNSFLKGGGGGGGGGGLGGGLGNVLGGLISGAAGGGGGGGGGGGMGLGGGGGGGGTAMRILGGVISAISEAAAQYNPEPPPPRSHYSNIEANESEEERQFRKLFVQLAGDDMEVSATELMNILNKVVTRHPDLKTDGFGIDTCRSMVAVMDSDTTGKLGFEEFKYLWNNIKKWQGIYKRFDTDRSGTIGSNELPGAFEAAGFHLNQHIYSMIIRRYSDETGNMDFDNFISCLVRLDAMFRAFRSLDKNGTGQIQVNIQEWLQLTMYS
Method: as §1

[1] = Table 4, read-out: Inhibitory activity against m-calpain IC50

IC50 (m-calpain; [1]) [µM] | Compound | other results
 | CC(C)C[C@H](NC(=O)OCC1CCCCC1)C(=O)N[C@@H](C(C)C)C(O)c1cc1=O (stereo partly drawn) [4 (No. 4), 2-[(2S)-2-((S)-2-cyclohexylmethoxycarbonylamino-4-methylvalerylamino)-1-hydroxy-3-methylbutyl]cyclopropenone] | IC50 (cathepsin B): 0.41 µM; IC50 (papain): 5.8 µM; IC50 (m-calpain; Table 3, read-out: IC50 (μM) m-calpain): 0.5 µM
0.88 | CC(C)C[C@H](NC(=O)c1ccco1)C(=O)N[C@@H](C(C)C)[C@@H](O)c1c(-c2ccccc2)c1=O [67 (No. 197), 2-[(1S, 2S)-2-{(S)-2-(2-furoylamino)-4-methylvalerylamino}-1-hydroxy-3-methylbutyl]-3-phenylcyclopropenone] | 
4 | CCCCCCCCCCCC(=O)N[C@@H](CC(C)C)C(=O)N[C@@H](C(C)C)[C@@H](O)c1c(-c2ccccc2)c1=O [38 (No. 120), 2-[(1S, 2S)-1-hydroxy-2-((S)-2-lauroylamino-4-methylvalerylamino)^- 3-methylbutyl]-3-phenylcyclopropenone] | 
0.44 | CC(C)C[C@H](NS(=O)(=O)Cc1ccccc1)C(=O)N[C@@H](C(C)C)[C@@H](O)c1c(-c2ccccc2)c1=O [78 (No. 237), 2-[(1S, 2S)-2-((S)-2-benzylsulfonylamino-4-methylvalerylamino)-1-hydroxy-3-methylbutyl]-3-phenylcyclopropenone] | 
0.84 | CC(C)C[C@H](NS(=O)(=O)c1ccc(Cl)cc1)C(=O)N[C@@H](C(C)C)[C@@H](O)c1c(-c2ccccc2)c1=O [85 (No. 248), 2-[(1S, 2S)-2-{(S)-2-(4-chlorophenylsulfonylamino)-4-methylvalerylamino}-1hydroxy-3-methylbutyl]-3-phenylcyclopropenone] | 
1.2 | CC(C)C[C@H](NC(=O)[C@H](Cc1ccccc1)NC(=O)OCc1ccccc1)C(=O)N[C@@H](C(C)C)[C@@H](O)c1c(-c2ccccc2)c1=O [120 (No. 478), 2-[(1S, 2S)-2-{(S)-2-((S)-2-benzyloxycarbonylamino-3-phenylpropionylamino)-4-methylvalerylamino}-1-hydroxy-3-methylbutyl]-3-phenylcyclopropenone] | 
0.75 | CC(C)C[C@H](NC(=O)COc1ccc(Cl)cc1)C(=O)N[C@@H](C(C)C)[C@@H](O)c1c(-c2ccccc2)c1=O [51 (No. 154), 2-[(1S, 2S)-2-{(S)-2-(4-chlorophenoxyacetylamino)-4-methylvalerylamino}-1-hydroxy-3-methylbutyl]-3-phenylcyclopropenone] | 
4.6 | CC(C)C[C@H](NC(=O)Nc1ccccc1)C(=O)N[C@@H](C(C)C)[C@@H](O)c1c(-c2ccccc2)c1=O [76 (No. 227)] | 
1.1 | CC(C)C[C@H](NC(=O)COCc1ccccc1)C(=O)N[C@@H](C(C)C)[C@@H](O)c1c(-c2ccccc2)c1=O [54 (No. 166), 2-[(1S, 2S)-2-((S)-2-benzyloxyacetylamino-4-methylvalerylamino)-1-hydroxy-3-methylbutyl]-3-phenylcyclopropenone] | 
1.9 | CC(C)C[C@H](NC(=O)CCC1CCCCC1)C(=O)N[C@@H](C(C)C)[C@@H](O)c1c(-c2ccccc2)c1=O [39 (No. 124), 2-[(1S, 2S)-2-{(S)-2-(3-cyclohexylpropionylamino)-4-methylvalerylamino} -1-hydroxy-3-methylbutyl]-3-phenylcyclopropenone] | 
0.8 | CC(C)C[C@H](NC(=O)c1ccc2ccccc2n1)C(=O)N[C@@H](C(C)C)[C@@H](O)c1c(-c2ccccc2)c1=O [74 (No. 219), 2-[(1S, 2S)-1-hydroxy-3-methyl-2-{(S)-4-methyl-2-(2-quinolylcarbonylamino)valerylamino}butyl-3-phenylcyclopropenone hydrochloride] | 
1.3 | CC(C)C[C@H](NC(=O)OCc1ccncc1)C(=O)N[C@@H](C(C)C)[C@@H](O)c1c(-c2ccccc2)c1=O [31 (No. 99), 2-[(1S, 2S)-1-hydroxy-3-methyl-2-{(S)-4-methyl-2-(4-pyridylmethoxycarbonylamino)valerylamino}butyl]-3-phenylcyclopropenone hydrochloride] | 
2.9 | CC(C)C[C@H](NS(=O)(=O)c1ccccc1)C(=O)N[C@@H](C(C)C)[C@@H](O)c1c(-c2ccc(F)cc2)c1=O [111 (No. 317), 2-(4-fluorophenyl)-3-[(1S, 2S)-1-hydroxy-3-methyl-2-((S)-4-methyl-2-phenylsulfonylaminovalerylamino)butyl]cyclopropenone] | 
1.2 | CC(C)C[C@H](NC(=O)COc1ccccc1Cl)C(=O)N[C@@H](C(C)C)[C@@H](O)c1c(-c2ccccc2)c1=O [50 (No. 152), 2-[(1S, 2S)-2-{(S)-2-(2-chlorophenoxyacetylamino)-4-methylvalerylamino}-1-hydroxy-3-methylbutyl]-3-phenylcyclopropenone] | 
3 | Cc1cc(C(=O)N[C@@H](CC(C)C)C(=O)N[C@@H](C(C)C)[C@@H](O)c2c(-c3ccccc3)c2=O)n(C)n1 [69 (No. 203), 2-[(1S, 2S)-2-{(S)-2-(1,3-dimethyl-5-pyrazolylcarbonylamino)-4-methylvalerylamino}-1-hydroxy-3-methylbutyl]-3-phenylcyclopropenone] | 
1 | CC(C)C[C@H](NC(=O)CCC(=O)c1ccccc1)C(=O)N[C@@H](C(C)C)[C@@H](O)c1c(-c2ccccc2)c1=O [45 (No. 140), 2-[(1S, 2S)-2-{(S)-2-(3-benzoylpropionylamino)-4-methylvalerylamino}-1-hydroxy-3-methylbutyl]-3-phenylcyclopropenone] | 
0.63 | CC(C)C[C@H](NC(=O)COc1ccccc1)C(=O)N[C@@H](C(C)C)[C@@H](O)c1c(-c2ccccc2)c1=O [48 (No. 148), 2-[(1S, 2S)-1-hydroxy-3-methyl-2-((S)-4-methyl-2-phenoxyacetylaminovalerylamino)butyl]-3-phenylcyclopropenone] | 
1.2 | CC(C)C[C@H](NC(=O)OCc1ccncc1)C(=O)N[C@@H](C(C)C)[C@H](O)c1c(-c2ccccc2)c1=O [32 (No. 99), 2-[(1R, 2S)-1-hydroxy-3-methyl-2-{(S)-4-methyl-2-(4-pyridylmethoxycarbonylamino)valerylamino}butyl]-3-phenylcyclopropenone hydrochloride] | 
0.74 | CC(C)C[C@H](NC(=O)COc1cccc(Cl)c1Cl)C(=O)N[C@@H](C(C)C)[C@@H](O)c1c(-c2ccccc2)c1=O [52 (No. 155), 2-[(1S, 2S)-2-{(S)-2-(2,3-dichlorophenoxyacetylamino)-4-methylvalerylamino}-1-hydroxy-3-methylbutyl]-3-phenylcyclopropenone] | 
2.6 | CC(C)C[C@H](NC(=O)C1CCCCC1)C(=O)N[C@@H](C(C)C)[C@@H](O)c1c(-c2ccccc2)c1=O [40 (No. 129), 2-[(1S, 2S)-2-((S)-2-cyclohexylcarbonylamino-4-methylvalerylamino)-1-hydroxy-3-methylbutyl]-3-phenylcyclopropenone] | 
1.9 | CC(C)C[C@H](NS(=O)(=O)c1cccc2cccnc12)C(=O)N[C@@H](C(C)C)[C@@H](O)c1c(-c2ccccc2)c1=O [91 (No. 265), 2-[(1S, 2S)-1-hydroxy-3-methyl-2-{(S)-4-methyl-2-(8-quinolylsulfonylamino)valerylamino}butyl]-3-phenylcyclopropenone] | 
